Experimental data as given in patent US20240317735A1, “HYDROISOQUINOLINE OR HYDRONAPHTHYRIDINE COMPOUNDS FOR THE TREATMENT OF AUTOIMMUNE DISEASE” (Hoffmann-La Roche Inc., priority 2020, published 2024).
pIC50: −log10 of the molar value.

How the values were obtained:
[1] = target: T1, hERG channel (Homo sapiens, UniProt Q12809); assay: hERG channel inhibition assay (patch-clamp, CHOhERG cells); assay type: cell-based; details: for pIC50 / IC20: CHOhERG cells, whole-cell patch-clamp; for IC20: human, CHO cells stably expressing hERG (CHOhERG); for hERG IC20/TLR7 IC50 / hERG IC20/TLR8 IC50 / hERG IC20/TLR9 IC50: safety ratio; for hERG IC20/TLR7 IC50: hERG IC20 over HEK/hTLR7 IC50; for hERG IC20/TLR8 IC50: hERG IC20 over HEK/hTLR8 IC50; for hERG IC20/TLR9 IC50: hERG IC20 over HEK/hTLR9 IC50
T1 construct: expressed in transfected cells; host or cells: CHO (CHOhERG)
T1 sequence (Q12809 whole entry): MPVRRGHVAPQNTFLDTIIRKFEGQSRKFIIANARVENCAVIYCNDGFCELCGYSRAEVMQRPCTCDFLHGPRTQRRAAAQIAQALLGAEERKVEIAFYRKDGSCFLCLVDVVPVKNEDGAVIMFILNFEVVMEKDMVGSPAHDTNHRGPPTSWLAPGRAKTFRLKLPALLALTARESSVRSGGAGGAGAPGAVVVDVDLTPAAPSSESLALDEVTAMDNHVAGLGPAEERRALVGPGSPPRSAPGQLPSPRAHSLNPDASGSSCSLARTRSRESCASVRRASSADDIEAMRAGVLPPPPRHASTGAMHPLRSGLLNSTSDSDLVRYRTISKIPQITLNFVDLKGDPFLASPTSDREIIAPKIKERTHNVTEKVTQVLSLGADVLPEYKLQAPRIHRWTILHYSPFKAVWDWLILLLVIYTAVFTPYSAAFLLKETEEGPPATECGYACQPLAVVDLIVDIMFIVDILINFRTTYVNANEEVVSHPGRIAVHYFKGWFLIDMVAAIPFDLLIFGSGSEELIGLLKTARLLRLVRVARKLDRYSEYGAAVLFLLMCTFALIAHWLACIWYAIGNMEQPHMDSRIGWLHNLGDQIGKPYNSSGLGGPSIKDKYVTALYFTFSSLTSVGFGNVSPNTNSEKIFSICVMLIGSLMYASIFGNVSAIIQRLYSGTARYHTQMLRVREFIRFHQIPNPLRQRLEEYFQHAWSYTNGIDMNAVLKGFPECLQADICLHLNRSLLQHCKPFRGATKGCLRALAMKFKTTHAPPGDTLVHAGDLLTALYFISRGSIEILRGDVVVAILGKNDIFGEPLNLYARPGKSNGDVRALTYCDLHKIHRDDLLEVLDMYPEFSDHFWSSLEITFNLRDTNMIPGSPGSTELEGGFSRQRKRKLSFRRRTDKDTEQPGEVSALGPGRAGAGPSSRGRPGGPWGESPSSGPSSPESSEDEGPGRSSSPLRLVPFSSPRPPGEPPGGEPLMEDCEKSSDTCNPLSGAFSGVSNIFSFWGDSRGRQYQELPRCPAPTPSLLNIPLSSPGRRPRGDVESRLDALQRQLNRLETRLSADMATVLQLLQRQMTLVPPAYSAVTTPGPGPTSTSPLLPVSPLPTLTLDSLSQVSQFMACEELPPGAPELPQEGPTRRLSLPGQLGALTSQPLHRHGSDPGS
Method: The hERG K^+ channels were cloned in humans and stably expressed in a CHO (Chinese hamster ovary) cell line. CHOhERG cells were used for patch-clamp (voltage-clamp, whole-cell) experiments. Cells were stimulated by a voltage pattern to activate hERG channels and conduct IKhERG currents (rapid delayed outward rectifier potassium current of the hERG channel). After the cells were stabilized for a few minutes, the amplitude and kinetics of IKhERG were recorded at a stimulation frequency of 0.1 Hz (6 bpm). Thereafter, the test compound was added to the preparation at increasing concentrations. For each concentration, an attempt was made to reach a steady-state effect, usually, this was achieved within 3-10 min at which time the next highest concentration was applied. The amplitude and kinetics of IKhERG are recorded in each concentration of the drug which were compared to the control values (taken as 100%). (references: Redfern W S, Carlsson L, Davis A S, Lynch W G, MacKenzie I, Palethorpe S, Siegl P K, Strang I, Sullivan A T, Wallis R, Camm A J, Hammond T G. 2003; Relationships between preclinical cardiac electrophysiology, clinical QT interval prolongation and torsade de pointes for a broad range of drugs: evidence for a provisional safety margin in drug development. Cardiovasc. Res. 58:32-45, Sanguinetti MC, Tristani-Firouzi M. 2006; hERG potassium channels and cardiac arrhythmia. Nature 440:463-469, Webster R, Leishman D, Walker D. 2002; Towards a drug concentration effect relationship for QT prolongation and torsades de pointes. Curr. Opin. Drug Discov. Devel. 5:116-26).

[2] = target: T2, TLR9 (Homo sapiens, UniProt Q9NR96); assay: HEK293-Blue-hTLR-9 cells assay (SEAP reporter, ODN2006 stimulation); assay type: cell-based; design: host or cells: HEK293 (HEK-Blue hTLR9); details: HEK293-Blue-hTLR9 cells, ODN2006, 20 hrs; read-out: HEK/hTLR9 IC50
T2 sequence (Q9NR96 26-1032): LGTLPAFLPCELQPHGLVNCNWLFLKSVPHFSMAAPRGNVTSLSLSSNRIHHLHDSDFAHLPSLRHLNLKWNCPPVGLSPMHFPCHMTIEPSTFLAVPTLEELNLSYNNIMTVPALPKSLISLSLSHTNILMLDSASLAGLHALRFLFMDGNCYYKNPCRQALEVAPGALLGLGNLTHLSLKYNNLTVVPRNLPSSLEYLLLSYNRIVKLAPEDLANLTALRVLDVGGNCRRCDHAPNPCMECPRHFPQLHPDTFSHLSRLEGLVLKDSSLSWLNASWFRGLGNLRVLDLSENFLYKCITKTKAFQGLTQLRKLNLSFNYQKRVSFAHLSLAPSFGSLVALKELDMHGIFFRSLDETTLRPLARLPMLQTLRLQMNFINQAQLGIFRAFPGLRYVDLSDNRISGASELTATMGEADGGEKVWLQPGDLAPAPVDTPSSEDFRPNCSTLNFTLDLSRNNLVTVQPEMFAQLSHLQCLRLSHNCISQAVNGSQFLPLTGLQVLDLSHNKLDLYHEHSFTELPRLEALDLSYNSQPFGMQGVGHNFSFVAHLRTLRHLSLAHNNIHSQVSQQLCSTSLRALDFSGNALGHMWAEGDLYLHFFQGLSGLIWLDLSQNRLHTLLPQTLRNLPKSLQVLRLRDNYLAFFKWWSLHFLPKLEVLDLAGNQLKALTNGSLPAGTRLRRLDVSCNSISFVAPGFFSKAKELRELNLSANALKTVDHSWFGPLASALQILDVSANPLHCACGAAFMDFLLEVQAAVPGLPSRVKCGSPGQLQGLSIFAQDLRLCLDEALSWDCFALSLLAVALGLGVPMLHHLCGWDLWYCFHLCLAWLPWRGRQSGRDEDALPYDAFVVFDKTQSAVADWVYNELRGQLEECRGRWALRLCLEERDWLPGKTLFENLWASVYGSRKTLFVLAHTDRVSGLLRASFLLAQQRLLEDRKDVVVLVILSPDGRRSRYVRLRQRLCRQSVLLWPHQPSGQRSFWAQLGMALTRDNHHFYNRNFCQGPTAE
Method: The following tests were carried out in order to determine the activity of the compounds of formula (I) and (Ia) in HEK293-Blue-hTLR-7/8/9 cells assay.
A stable HEK293-Blue-hTLR-9 cell line was purchased from InvivoGen (Cat. #: hkb-htlr9, San Diego, California, USA). These cells were originally designed for studying the stimulation of human TLR9 by monitoring the activation of NF-κB. A SEAP (secreted embryonic alkaline phosphatase) reporter gene was placed under the control of the IFN-β minimal promoter fused to five NF-κB and AP-1-binding sites. The SEAP was induced by activating NF-κB and AP-1 via stimulating HEK-Blue hTLR9 cells with TLR9 ligands. Therefore the reporter expression was declined by TLR9 antagonist under the stimulation of a ligand, such as ODN2006 (Cat. #: tlrl-2006-1, Invivogen, San Diego, California, USA), for incubation of 20 hrs. The cell culture supernatant SEAP reporter activity was determined using QUANTI-Blue™ kit (Cat. #: rep-qb1, Invivogen, San Diego, California, USA) at a wavelength of 640 nm, a detection medium that turns purple or blue in the presence of alkaline phosphatase.
HEK293-Blue-hTLR9 cells were incubated at a density of 250,000-450,000 cells/mL in a volume of 170 μL in a 96-well plate in Dulbecco's Modified Eagle's medium (DMEM) containing 4.5 g/L glucose, 50 U/mL penicillin, […], […], 2 mM L-glutamine, 10% (v/v) heat-inactivated fetal bovine serum with addition of 20 μL test compound in a serial dilution in the presence of final DMSO at 1% and 10 μL of 20 uM ODN2006 in above DMEM, perform incubation under 37° C. in a CO2 incubator for 20 hrs. Then 20 μL of the supernatant from each well was incubated with 180 μL Quanti-blue substrate solution at 37° C. for 2 h and the absorbance was read at 620˜655 nm using a spectrophotometer.
The signaling pathway that TLR9 activation leads to downstream NF-κB activation has been widely accepted, and therefore similar reporter assay was modified for evaluating TLR9 antagonist.

SMILES | pIC50 [1] | IC20 [1] | hERG IC20/TLR7 IC50 [1] | hERG IC20/TLR8 IC50 [1] | hERG IC20/TLR9 IC50 [1] | pIC50 [2]
C[C@H]1CN(c2ccnc3c2cnn3C)Cc2ccc(N3C[C@@]4(CCNC4)CC3=O)cc21 (single isomer, unassigned) [Example 53] | < 4.70 | > 10000 nM | >555.6 | >1666.7 | >47.6 | 6.68
C[C@H]1CN(c2ccnc3c2cnn3C)Cc2ccc(N3CCNCC3)cc21 [Example 1, (4R)-4-methyl-2-(1-methylpyrazolo[3,4-b]pyridin-4-yl)-6-piperazin-1-yl-3,4-dihydro-1H-isoquinoline] | < 4.70 | 6400 nM | 2133.3 | 3200.0 | 32.3 | 6.70
Cn1ncc2c(N3CCc4cc(N5CCNCC5)ccc4C3)ccnc21 [Example 3, 2-(1-methylpyrazolo[3,4-b]pyridin-4-yl)-6-piperazin-1-yl-3,4-dihydro-1H-isoquinoline] | < 4.70 | > 10000 nM | >526.3 | >178.6 | >54.1 | 6.73
C[C@H]1CN(c2ccnc3c2cnn3C)Cc2ccc(N3CC4(CCNCC4)CC3=O)cc21 [Example 16, 2-[(4R)-4-methyl-2-(1-methylpyrazolo[3,4-b]pyridin-4-yl)-3,4-dihydro-1H-isoquinolin-6-yl]-2,8-diazaspiro[4.5]decan-3-one] | < 4.70 | > 10000 nM | >2000.0 | >2500.0 | >158.7 | 7.20
CO[C@H]1CN(c2ccc3c(n2)[C@@H](C)CN(c2cc(C)nc4c2cnn4C)C3)CC[C@@H]1N [Example 65, (3S,4S)-3-methoxy-1-[(8S)-6-(1,6-dimethylpyrazolo[3,4-b]pyridin-4-yl)-8-methyl-7,8-dihydro-5H-1,6-naphthyridin-2-yl]piperidin-4-amine] | – | – | – | – | – | 6.97
Cc1cc(N2Cc3ccc(N4CCNCC4)nc3[C@@H](C)C2)c2cnn(C)c2n1 [Example 66, (8S)-6-(1,6-dimethylpyrazolo[3,4-b]pyridin-4-yl)-8-methyl-2-piperazin-1-yl-7,8-dihydro-5H-1,6-naphthyridine] | – | – | – | – | – | 6.88
Cc1cc(N2Cc3ccc(N4CCN(C)CC4)nc3[C@@H](C)C2)c2cnn(C)c2n1 [Example 67, (8S)-6-(1,6-dimethylpyrazolo[3,4-b]pyridin-4-yl)-8-methyl-2-(4-methylpiperazin-1-yl)-7,8-dihydro-5H-1,6-naphthyridine] | – | – | – | – | – | 6.55
Cc1cc(N2Cc3ccc(N4CC5(CNCCO5)C4)nc3[C@@H](C)C2)c2cnn(C)c2n1 [Example 68, 2-[(8S)-6-(1,6-dimethylpyrazolo[3,4-b]pyridin-4-yl)-8-methyl-7,8-dihydro-5H-1,6-naphthyridin-2-yl]-5-oxa-2,8-diazaspiro[3.5]nonane] | – | – | – | – | – | 6.48
Cc1cc(N2Cc3ccc(N4C[C@@H](F)[C@@H](N)C4)nc3[C@@H](C)C2)c2cnn(C)c2n1 [Example 69, (3S,4R)-4-fluoro-1-[(8S)-6-(1,6-dimethylpyrazolo[3,4-b]pyridin-4-yl)-8-methyl-7,8-dihydro-5H-1,6-naphthyridin-2-yl]pyrrolidin-3-amine] | – | – | – | – | – | 6.31
Cc1cc(N2Cc3ccc(N4CCOC5(CNC5)C4)nc3[C@@H](C)C2)c2cnn(C)c2n1 [Example 70, 8-[(8S)-6-(1,6-dimethylpyrazolo[3,4-b]pyridin-4-yl)-8-methyl-7,8-dihydro-5H-1,6-naphthyridin-2-yl]-5-oxa-2,8-diazaspiro[3.5]nonane] | – | – | – | – | – | 6.52
Cc1cc(N2Cc3ccc(N4CCNCC4)nc3[C@H](C)C2)c2cnn(C)c2n1 [Example 72, (8R)-6-(1,6-dimethylpyrazolo[3,4-b]pyridin-4-yl)-8-methyl-2-piperazin-1-yl-7,8-dihydro-5H-1,6-naphthyridine] | – | – | – | – | – | 6.95
Cc1cc(N2Cc3cnc(N4CCNCC4)cc3[C@@H](C)C2)c2cnn(C)c2n1 [Example 74, (4R)-2-(1,6-dimethylpyrazolo[3,4-b]pyridin-4-yl)-4-methyl-6-piperazin-1-yl-3,4-dihydro-1H-2,7-naphthyridine] | – | – | – | – | – | 6.78
Cc1cc(N2Cc3cnc(N4CCNC5(CC5)C4)cc3[C@@H](C)C2)c2cnn(C)c2n1 [Example 75, (4R)-6-(4,7-diazaspiro[2.5]octan-7-yl)-2-(1,6-dimethylpyrazolo[3,4-b]pyridin-4-yl)-4-methyl-3,4-dihydro-1H-2,7-naphthyridine] | – | – | – | – | – | 6.94
CO[C@@H]1CN(c2cc3c(cn2)CN(c2cc(C)nc4c2cnn4C)C[C@@H]3C)C[C@H]1N [Example 78, (3R,4R)-4-methoxy-1-[(5R)-7-(1,6-dimethylpyrazolo[3,4-b]pyridin-4-yl)-5-methyl-6,8-dihydro-5H-2,7-naphthyridin-3-yl]pyrrolidin-3-amine] | – | – | – | – | – | 6.47
Cc1cc(N2Cc3cnc(N4CC5(CNCCO5)C4)cc3[C@@H](C)C2)c2cnn(C)c2n1 [Example 79, 2-[(5R)-7-(1,6-dimethylpyrazolo[3,4-b]pyridin-4-yl)-5-methyl-6,8-dihydro-5H-2,7-naphthyridin-3-yl]-5-oxa-2,8-diazaspiro[3.5]nonane] | – | – | – | – | – | 6.88
COC[C@H]1CN(c2cc3c(cn2)CN(c2cc(C)nc4c2cnn4C)C[C@@H]3C)CCN1 [Example 81, (4R)-2-(1,6-dimethylpyrazolo[3,4-b]pyridin-4-yl)-4-methyl-6-[(3R)-3-(methoxymethyl)piperazin-1-yl]-3,4-dihydro-1H-2,7-naphthyridine] | – | – | – | – | – | 6.66
